# Legend:
# [1] = system: Kaolin Edema of the Rat Paw; assay: Kaolin edema of the rat paw; assay type: in vivo; settings: for 60 min. (paw edema) / 120 min. (paw edema) / 180 min. (paw edema): ig., section K
# Protocol: test animals used are the same as stated under Example B and up to the beginning of the test, the procedure corresponded to that described under this example.
# After an initial measurement, a sterile 25% kaolin suspension was injected (0.05 ml/paw) subplantarly. The test substances are administered immediately, and after 60, 120, and 180 minutes the paw volume is again determined.
# Evaluation of the tests was performed as stated under Example C, and the results so obtained presented below: […]
# [2] = system: Yeast Edema of the Rat Paw; assay: Yeast edema and determination of pain threshold in the rat paw; assay type: in vivo; settings: 3 h
# Protocol: test animals are male rats (SIV 50) weighing 100 to 180 g. […] 10 animals belonged to each dosage group.
# The volume of the paw is determined according to the method described by Enders and Heidbrink, the pain threshold according to that described by Randall and Selitto (Arch. Int. Pharmacodyn CXI: 409, 1957).
# Following initial measurements, […] of a 5% suspension of dried yeast is injected subplantarly into the right paw and the test substances are administered immediately. The blank control group is given Tragacanth mucilage only. After 3 hours the pain threshold and the volume of the paw are determined again.
# The mean value of the increase in paw volume of the animals of the blank control after 3 hours is rated 100%, and the mean value of the increase in paw volume of the animals of the substance groups expressed as a percentage thereof. Pain threshold after 3 hours reflects the increase or decrease in percent, compared to the initial value.
# In order to be able to calculate the ED50 according to the method by Lichtfield and Wilcoxon (J.P.E.T. 96:99, 1949), those animals in a dose group are considered protected when the paw swelling was at least 40% less than that of the blank control.
# Granuloma Pouch = assay: Granuloma pouch test; assay type: in vivo; settings: rat
# Protocol: Under light ether anesthesia 25 ml of air are injected under the shaved skin of the back. 0.5 ml of croton oil/animal (0.05%) are injected into the pouch formed by the air, and evenly distributed over the back by turning the animal.
# On the third day croton oil (3%, 0.5 ml/animal) is again injected into this pouch.
# The average dry weights of the granuloma pouches and the quantities of secretion of the groups subjected to treatment are then compared with those of the control group and the percental deviations calculated.
# At the end of some tests the suprarenal glands are removed and the weight of these organs is also determined.
# The weight of the animals is measured daily and the changes determined as a percentage.
# [3] = Summary: calculated ED50 and therapeutic ratio; assay type: in vivo, rat; settings: for ED50: Rattus norvegicus
# Protocol: From the ED50 and LD50 (A) the following therapeutic ratios for this test are calculated: […]
# [4] = system: Arthritis Induced by the Freund Adjuvant; assay: Adjuvant arthritis; assay type: in vivo; settings: rat, i.g., 2 × 60.0 mg/kg
# Protocol: test animals used are the same as described under Example E; food and water is given ad libitum.
# On the first day of the test a 0.8% suspension of Mycobacterium butyrium in paraffin (0.05 or 0.1 ml/paw) is injected subplantarly into the left hind paw of the animals. […] From the 19th to the 22nd day the animals showing a reaction are treated intragastrically with the test substances. The right paw having been marked above the ankle-joint, the volume is determined daily from the 19th to the 22nd or 23rd day, according to the process described under Example B.
# The volume of liquid, as well as of the carrier administered, corresponded to that described in the above tests.
# [5] = system: Carrageenin Edema of the Rat Paw; assay: Carrageenin edema of the rat paw; assay type: in vivo
# Protocol: test animals used are the same as stated under Example B and up to the initial measurement, the procedure corresponded to that described under this example.
# After an initial measurement, the test substances are administered and after 60 minutes a 1% Carrageenin suspension is injected subplantarly (0.1 ml/paw). After 60 and 180 minutes the paw volume is again determined. Here, too, the blank control group was treated with the carrier alone.
# The increase in the volume of the paw after 60 minutes is considered as the first phase of the biphase edema and that after 180 minutes, as compared to the 60-minute-value, as the second phase. Moreover, the total increase of the paw edema within 180 minutes, as compared to the initial value, is also determined.
# Determination of the influence exerted by the substances upon the development of the paw edema and calculation of the ED50 are done as under Example B.
# Granulation Tissue = assay: Cotton-pellet test (granulation tissue); assay type: in vivo; settings: rat
# Protocol: test animals are male rats (SIV 50) weighing 110 to 200 g. All test animals are kept fasting for 16 to 18 hours prior to the implantation of the pellets; after that food and water were available ad libitum. Each dose level of the chemical tested was administered to 12 animals. The substances were suspended in 1% Tragacanth mucilage and administered intragastrically by means of a stomach tube. The substances to be investigated and the control suspensions are administered once on the operating day following operation, and twice a day on the following 6 days (at intervals of 6 to 8 hours). The type of application and volume of liquid corresponded to that under B.
# Under light ether anesthesia 4 sterile cotton pellets were implanted under the skin on the back of the animal. The weight of one pellet was 50 mg ± 0.5 mg. After 7 days treatment, the animals were sacrificed, the pellets removed with the granulation tissue, weighed and then dried in the incubator at +80°C to constant weight. The average dry weight of the granulation tissue of the control group was rated 100%, and deviations of the mean weights of the group treated with the test substance determined as a percentage thereof.
# The weight of the animals is measured daily throughout the tests, and the percental increase determined. At the end of some tests, moreover, the suprarenal glands are removed and their weight determined.
# in vivo = settings: mouse
# male mice (NMRI) = assay: Hot-plate test (analgesia); assay type: in vivo; settings: mouse, i.g., up to 400 mg/kg
# Protocol: male mice (NMRI) weighing 18 to 28 g are used as test animals. The animals are placed on a copper plate constantly kept at 55°C, and the time is measured until they lick their forepaws.
# Following 3 initial measurements, the test substances are administered intragastrically. Afterwards the measurements are repeated over a period of 2 hours at intervals of 30 minutes. Each dose is administered to 10 animals selected from groups of 15 animals following the initial measurements.
# The test substances are administered as a suspension in 1% Tragacanth mucilage, the volume of liquid amounting to 2 ml/100 g of body weight.
# For the purpose of statistical evaluation according to Litchfield and Wilcoxon, those animals in which the reaction time has been extended by at least 100% are considered protected.
# [6] = ig., 2×90.0 mg/kg daily, section K
# [7] = po, ig., 200 mg/kg, section K, read-out: volume (paw, control = 100%)
smiles,measurement,setting,value
"CCCCC1C(=O)N(c2ccccc2)N(c2ccccc2)C1=O [Phenylbutazone, 4-n-Butyl-1,2-diphenyl-3,5-dioxo-pyrazolidine]",60 Minutes (paw edema),[1]; 90.0 mg/kg,107%
same,120 Minutes (paw edema),[1]; 90.0 mg/kg,100%
same,180 Minutes (paw edema),[1]; 90.0 mg/kg,81%
same,"Volume (increase in paw volume, blank control = 100%)","[2]; i.g., 150.0 mg/kg",74%
same,"Volume (increase in paw volume, blank control = 100%)","[2]; i.g., 300.0 mg/kg",67%
same,Granuloma Pouch Dry Weight,"Granuloma Pouch; i.g., 2 × 90 mg/kg daily",84%
same,Secretion,"Granuloma Pouch; i.g., 2 × 90 mg/kg daily",96%
same,granuloma pouch dry weight %,Granuloma Pouch; [6],84%
same,secretion %,Granuloma Pouch; [6],96%
same,Increase in Body Weight,"Granuloma Pouch; in vivo, 90 mg/kg",not influenced
same,increase in body weight %,"Granuloma Pouch; in vivo, 90 mg/kg",57%
same,ED50,[3],20.1 mg/kg
same,Swelling,[4],84%
same,1st Phase (paw edema),[5]; 60.0 mg/kg,114%
same,2nd Phase (paw edema),[5]; 60.0 mg/kg,52%
same,3 Hrs. (total paw edema),[5]; 60.0 mg/kg,77%
same,1st Phase (paw edema),[5]; 150.0 mg/kg,81%
same,2nd Phase (paw edema),[5]; 150.0 mg/kg,15%
same,3 Hrs. (total paw edema),[5]; 150.0 mg/kg,38%
same,Granulation Tissue % (Dry Weight),"Granulation Tissue; i.g., 2 × 90 mg/kg daily",78%
same,Increase in Body Weight,"Granulation Tissue; in vivo, 90 mg/kg",not influenced
"COC(=N)c1sc2ccccc2c1O [Example 1, Methyl 3-Hydroxy-Benzo[b]Thiopene-2-Carboximidate]",change in vivo at 75 mg/kg,"[2]; po, ig., 75 mg/kg, section K (control -23)",-10%
same,response vs control in vivo at 75 mg/kg,"[2]; po, ig., 75 mg/kg, section K (control pain -23), read-out: volume (paw, control = 100%)",32%
same,LD50,in vivo; po,> 1600 mg/kg
CN(C)CCNC(=N)c1sc2ccccc2c1O [Example 31],response vs control in vivo at 200 mg/kg,[2]; [7],75%
same,LD50,in vivo; po,> 1600 mg/kg
same,LD50,in vivo; sc,> 800 mg/kg
COCCOC(=N)c1sc2ccccc2c1O [Example 10],60 min. (paw edema),[1]; 200 mg/kg,67%
same,120 min. (paw edema),[1]; 200 mg/kg,47%
same,180 min. (paw edema),[1]; 200 mg/kg,46%
same,change in vivo at 200 mg/kg,"[2]; po, ig., 200 mg/kg, section K",-49%
same,response vs control in vivo at 200 mg/kg,[2]; [7],73%
same,change in vivo at 250 mg/kg,"[2]; po, ig., 250 mg/kg, section K (control -35)",-30%
same,response vs control in vivo at 250 mg/kg,"[2]; po, ig., 250 mg/kg, section K, read-out: volume (paw, control = 100%)",33%
same,LD50,in vivo; po,~1600 mg/kg
"CC(=O)Oc1ccccc1C(=O)O [Acetylsalicylic Acid, acetylsalicylic acid]",60 Minutes (paw edema),[1]; 300.0 mg/kg,156%
same,120 Minutes (paw edema),[1]; 300.0 mg/kg,93%
same,180 Minutes (paw edema),[1]; 300.0 mg/kg,82%
same,60 min. (paw edema),[1]; 300 mg/kg,156%
same,120 min. (paw edema),[1]; 300 mg/kg,93%
same,180 min. (paw edema),[1]; 300 mg/kg,82%
same,"Volume (increase in paw volume, blank control = 100%)","[2]; i.g., 150.0 mg/kg",134%
same,Pain Threshold (change vs initial value),"[2]; i.g., 300.0 mg/kg",-15%
same,"Volume (increase in paw volume, blank control = 100%)","[2]; i.g., 300.0 mg/kg",81%
same,Granuloma Pouch Dry Weight,"Granuloma Pouch; i.g., 2 × 150 mg/kg daily",88%
same,Increase in Body Weight,"Granuloma Pouch; i.g., 2 × 150 mg/kg daily",not influenced
same,Secretion,"Granuloma Pouch; i.g., 2 × 150 mg/kg daily",121%
same,ED50,[3],192 mg/kg
same,therapeutic ratio,[3]; from ED50 and LD50 (A),10.7
same,Notes (analgesic activity),male mice (NMRI),ineffective
same,1st Phase (paw edema),[5]; 100.0 mg/kg,83%
same,2nd Phase (paw edema),[5]; 100.0 mg/kg,114%
same,3 Hrs. (total paw edema),[5]; 100.0 mg/kg,96%
same,1st Phase (paw edema),[5]; 200.0 mg/kg,95%
same,2nd Phase (paw edema),[5]; 200.0 mg/kg,60%
same,3 Hrs. (total paw edema),[5]; 200.0 mg/kg,76%
same,Granulation Tissue % (Dry Weight),"Granulation Tissue; i.g., 2 × 200 mg/kg daily",89%
same,Increase in Body Weight,"Granulation Tissue; i.g., 2 × 200 mg/kg daily",not influenced
